Data reported in patent publication US7112584B2, “Nonsteroidal antiinflammatory agents” (Schering AG, priority 2002, dated 2006).

Experiments:
GR (IL-6 promoter) = target: T1, GR (IL-6 promoter) (Homo sapiens, UniProt P04150); assay: reporter gene test in HeLa cells, transrepression, IL-6 promoter-luciferase; conditions: for Emax: HeLa, read-out: Transrepression (TR)(IL-6-Promoter) Efficacy
T1 sequence (P04150 1-777): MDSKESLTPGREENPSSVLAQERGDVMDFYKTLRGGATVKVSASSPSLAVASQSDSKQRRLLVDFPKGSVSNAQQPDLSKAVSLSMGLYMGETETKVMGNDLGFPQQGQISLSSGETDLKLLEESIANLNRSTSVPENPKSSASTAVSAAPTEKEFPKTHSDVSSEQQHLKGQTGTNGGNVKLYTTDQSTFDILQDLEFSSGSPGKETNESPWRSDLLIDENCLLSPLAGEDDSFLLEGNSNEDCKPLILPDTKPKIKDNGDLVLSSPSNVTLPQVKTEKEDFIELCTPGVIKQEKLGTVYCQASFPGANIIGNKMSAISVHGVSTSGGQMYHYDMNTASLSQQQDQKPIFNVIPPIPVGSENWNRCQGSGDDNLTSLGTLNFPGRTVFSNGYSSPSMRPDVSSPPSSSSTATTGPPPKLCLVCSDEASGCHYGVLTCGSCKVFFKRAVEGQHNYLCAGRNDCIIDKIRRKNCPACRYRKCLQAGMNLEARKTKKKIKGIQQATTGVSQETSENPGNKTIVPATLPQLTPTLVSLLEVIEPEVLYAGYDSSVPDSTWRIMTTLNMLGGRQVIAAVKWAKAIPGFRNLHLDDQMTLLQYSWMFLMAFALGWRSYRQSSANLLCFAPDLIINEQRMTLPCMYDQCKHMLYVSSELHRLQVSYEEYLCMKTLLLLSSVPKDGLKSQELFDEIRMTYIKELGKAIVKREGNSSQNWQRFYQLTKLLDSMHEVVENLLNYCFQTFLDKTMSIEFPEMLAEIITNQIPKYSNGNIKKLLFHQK
Method: (§1) The MMTV promoter (transactivation) and the IL-6 promoter (transrepression) in each case were upstream to the gene that codes for the luciferase. By means of the photometric determination of the enzyme activity of the luciferase, it was possible to measure the activation of the transcription (MMTV-promoter-construct) or the inhibition of the transcription (IL-6-promoter-construct) by the GR.
(§2) This dissociation of the mechanisms of action was determined with the aid of the reporter gene test in stable transfixed human HeLa cells. To determine the transactivation induced by the GR, the MMTV promoter, which is set before a luciferase gene, is used. Via the photometric determination of the luciferase activity, it was possible to determine the transactivation activities of the GR after binding the test compounds. The inhibition of the transcription of the luciferase gene, induced by tetradecanoyl-phorbol acetate (TPA) under the control of the IL-6 promoter or the collagenase promoter (transpression) by the GR after binding the test substances, was also determined by the measurement of luciferase activity in HeLa cells.

human GR = target: T2, human GR (Homo sapiens, UniProt P04150); assay: glucocorticoid receptor (GR) binding test, cytosol of Sf9 cells, [3H]-dexamethasone; conditions: human GR from Sf9 cytosol
T2 construct: made in house; host or cells: Sf9 cells infected with recombinant baculovirus (cytosol preparation)
T2 sequence (P04150 1-777): T1 sequence (P04150 1-777)
Source text: The binding of substances to the glucocorticoid receptor (GR) is examined with the aid of a recombinantly produced receptor. Cytosol preparations of Sf9 cells, which had been infected with recombinant baculoviruses, which code for the GR, are used for the binding studies.

[1] = test system: secretion of cytokine IL-8 in human monocyte cell line THP-1; assay: inhibition of LPS-triggered IL-8 secretion in THP-1 cells (ELISA); type: cell-based; set-up: Inhibition of IL-8 Secretion Efficacy: concentration or dose not given beside the values; conditions: THP-1, LPS-triggered; for IC50: Homo sapiens
Method: The concentration of the cytokines was determined in the supernatant with use of commercially available ELISA kits.
The potency of the inflammation inhibition is determined by the inhibition of the secretion of cytokine IL-8 in a cellular test. […] The concentration of the cytokine was determined in the supernatant by commercially available ELISA kits. In this connection, the compounds of formula I show a high to very high potency and action (>50%) in the inhibition (see Table 4). The potency of the racemates is considerably lower than that of the pure enantiomers.

[2] = target: T3, GR (collagenase promoter) (Homo sapiens, UniProt P04150); assay: reporter gene test in HeLa cells, transrepression, collagenase promoter-luciferase; type: cell-based; conditions: TPA-induced; for IC50: read-out: Transrepression (TR)(Collagenase Promoter) IC50
T3 construct: endogenous in cells; host or cells: HeLa cells stably transfected with promoter-luciferase reporters (MMTV, IL-6 or collagenase promoter)
T3 sequence (P04150 1-777): T1 sequence (P04150 1-777)

[3] = test system: croton oil-induced inflammation; assay: croton oil-induced ear inflammation, edema formation in mice; type: in vivo; conditions: systemic, two hours before croton oil, ear weight
Method: The antiinflammatory actions of the compounds of general formula I were tested in the animal experiment by tests in the croton oil-induced inflammation in rats and mice (J. Exp. Med. (1995), 182, 99–108). In this connection, croton oil in ethanolic solution was administered topically to the animals' ears. The test substances were also administered topically or systemically simultaneously with or two hours before the croton oil. After 16–24 hours, the ear weight was measured as a yardstick of the inflammatory edema, the peroxidase activity was measured as a yardstick of the invasions of granuloctyes, and the elastase activity was measured as a yardstick of the invasion of neutrophilic granuloctyes.
The antiinflammatory action of the compounds of general formula I were tested in an animal experiment in croton oil-induced inflammation in mice and in rats (J. Exp. Med. (1995), 182, 99–108). In this connection, croton oil in ethanolic solution was administered topically to the animals' ears. The test substances were systemically administered for two hours before the croton oil. After 16–24 hours, the ear weight was measured as a yardstick for the inflammatory edema.

[4] = test system: tyrosinamino transferase (TAT); assay: induction of tyrosinamino transferase (TAT) in liver homogenates; type: in vivo; conditions: mice, 8 hours after administration, vs untreated control
Source text: One of the most frequent undesirable effects of a glucocorticoid therapy is the so-called “steroid diabetes” [cf. Hatz, H. J., Glucocorticoide: Immunologische Grundlagen, Pharmakologie und Therapierichtlinien [Glucocorticoids: Immunological Bases, Pharmacology and Therapy Guidelines], Wissenschaftliche Verlagsgesellschaft mbH, Stuttgart, 1998]. The reason for this is the stimulation of the gluconeogenesis in the liver by induction of the enzymes that are responsible for this effect and by free amino acids, which develop from the degradation of proteins (catabolic action of glucocorticoids). A key enzyme of the catabolic metabolism in the liver is the tyrosinamino transferase (TAT). The activity of this enzyme can be determined photometrically from liver homogenates and represents a good yardstick of the undesirable metabolic actions of the glucocorticoids. To measure the TAT induction, the animals are sacrificed 8 hours after the test substances are administered, the livers are removed, and the TAT activity in the homogenate is measured.
As parameters for the side effects of the catabolic metabolism induced by steroids, the activity of the enzyme tyrosinamino transferase (TAT) was determined by photometry from liver homogenates. The activity represents a good yardstick for the undesirable catabolic actions of the glucocorticoids. To measure the TAT induction, the animals (mice and rats) are killed 8 hours after the test substance is administered, the liver is removed, and the TAT activity is measured in the homogenates.

GR (MMTV promoter) = target: T4, GR (MMTV promoter) (Homo sapiens, UniProt P04150); assay: reporter gene test in HeLa cells, transactivation, MMTV promoter-luciferase; conditions: for Transactivating (TA)(MMTV-Promoter) Efficacy: HeLa cells, luciferase; for TA:TR EC50:IC50: MMTV promoter EC50 : IL-6 promoter IC50
T4 sequence (P04150 1-777): T1 sequence (P04150 1-777)
Method: as §1, §2

melting point [°C] | IC50 (GR (IL-6 promoter)) [nM] | Emax (GR (IL-6 promoter)) [%] | IC50 (human GR) [nM] | IC50 [1] [nM] | Transrepression (TR)(Collagenase Promoter) Efficacy [2] [%] | IC50 [2] [nM] | Induction Factor for TAT with 3 mg/kg [4] | Induction Factor for TAT with 30 mg/kg [4] | EC50 (GR (MMTV promoter)) [nM] | Transactivating (TA)(MMTV-Promoter) Efficacy (GR (MMTV promoter)) [%] | TA:TR EC50:IC50 (GR (MMTV promoter)) | SMILES | Inhibition of IL-8 Secretion Efficacy [1] [%] | Edema Inhibition with 3 mg/kg [3] [%] | Edema Inhibition with 30 mg/kg [3] [%]
138 | – | – | 2 | 860 | – | – | – | – | – | – | – | Cc1noc(=O)c2ccc(NC(=O)C(O)(CC3(c4cc(F)ccc4O)CCC3)C(F)(F)F)cc12 (racemic) [Example 28] | 100 | – | –
249 to 255 | – | – | < 0.3 | 37 | – | – | – | – | – | – | – | Cc1noc(=O)c2ccc(NC(=O)C(O)(CC3(c4cccc5c4OCC5)CC3)C(F)(F)F)cc12 (single isomer, unassigned) [Example 13] | 68 | – | –
– | 1.5 | 79 | 0.35 | 31 | 105 | 3.4 | 1.0 | 2.0 | 13 | 59 | 8.7 | Cc1noc(=O)c2ccc(NC(=O)C(O)(CC3(c4cc(F)ccc4O)CCC3)C(F)(F)F)cc12 (single isomer, unassigned) [Example 29] | 86 | 34 | 66

More lines, now with the values behind:

SMILES | melting point [°C] | IC50 (GR (IL-6 promoter)) [nM] | Emax (GR (IL-6 promoter)) [%] | IC50 (human GR) [nM] | IC50 [1] [nM] | Transrepression (TR)(Collagenase Promoter) Efficacy [2] [%] | IC50 [2] [nM] | Induction Factor for TAT with 3 mg/kg [4] | Induction Factor for TAT with 30 mg/kg [4] | EC50 (GR (MMTV promoter)) [nM] | Transactivating (TA)(MMTV-Promoter) Efficacy (GR (MMTV promoter)) [%] | TA:TR EC50:IC50 (GR (MMTV promoter)) | Inhibition of IL-8 Secretion Efficacy [1] [%] | Edema Inhibition with 3 mg/kg [3] [%] | Edema Inhibition with 30 mg/kg [3] [%]
Cc1noc(=O)c2ccc(NC(=O)C(O)(CC(C)(C)c3cc(F)cc4c3OCO4)C(F)(F)F)cc12 (racemic) [Example 18] | 215 to 217 | 5.7 | 63 | – | – | – | – | – | – | – | – | – | – | – | –
Cc1noc(=O)c2ccc(NC(=O)C(O)(CC(C)(C)c3cccc4c3OCO4)C(F)(F)F)cc12 (single isomer, unassigned; (+)) [Example 2, (+)-6-[4-(Benzo[1,3]dioxol-4-yl)-2-hydroxy-4-methyl-2-trifluoromethyl-valeroyl-amino]-4-methyl-2,3-benzoxazin-1-one] | – | 0.92 | 66 | < 0.3 | 29 | 92 | 3.7 | 1.4 | 2.4 | 11 | 71 | 11.9 | 57 | 55 | 86
